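Five concentrations, 48 hours, 96-well plates. The concentration for 50% growth inhibition is given as GI50.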 The source made the active and inactive calls. No stated cut-off is given here; in the data, active = GI50 up to about 1.1 µM and inactive = higher.
How the values were obtained:
Test in all cases: growth of human tumour cells (NCI), 48 h
HOP-92 = test system: HOP-92
NCI-H522 = test system: NCI-H522
NCI-H23 = test system: NCI-H23
SNB-75 = test system: SNB-75
OVCAR-8 = test system: OVCAR-8
786-0 = test system: 786-0
SF-539 = test system: SF-539
Malme-3M = test system: Malme-3M
HCC 2998 = test system: HCC 2998
MCF7 = test system: MCF7
SF-295 = test system: SF-295
M14 = test system: M14
HL-60 = test system: HL-60
ACHN = test system: ACHN
EKVX = test system: EKVX
IGROV-1 = test system: IGROV-1
LOX IMVI = test system: LOX IMVI
HCT-15 = test system: HCT-15
UACC-62 = test system: UACC-62
MDA-MB-435 = test system: MDA-MB-435
RXF 393 = test system: RXF 393
A498 = test system: A498
OVCAR-5 = test system: OVCAR-5
HOP-62 = test system: HOP-62
MOLT-4 = test system: MOLT-4
OVCAR-3 = test system: OVCAR-3
MDA-N = test system: MDA-N
SK-OV-3 = test system: SK-OV-3
SK-MEL-2 = test system: SK-MEL-2
CCRF-CEM = test system: CCRF-CEM
NCI-H226 = test system: NCI-H226
COLO 205 = test system: COLO 205
SN12C = test system: SN12C
PC-3 = test system: PC-3
UO-31 = test system: UO-31
HCT-116 = test system: HCT-116
T47D = test system: T47D
UACC-257 = test system: UACC-257
TK-10 = test system: TK-10
K562 = test system: K562
KM12 = test system: KM12
SNB-19 = test system: SNB-19
SK-MEL-28 = test system: SK-MEL-28
HT-29 = test system: HT-29
SR = test system: SR
SK-MEL-5 = test system: SK-MEL-5
NCI-H460 = test system: NCI-H460
U-251 = test system: U-251
SF-268 = test system: SF-268
DU-145 = test system: DU-145
NCI/ADR-RES = test system: NCI/ADR-RES
OVCAR-4 = test system: OVCAR-4
MDA-MB-231 = test system: MDA-MB-231
SW-620 = test system: SW-620
A549 = test system: A549
Hs-578T = test system: Hs-578T
RPMI-8226 = test system: RPMI-8226

For CCc1c(C)c(C#N)c(=S)n(C2OC(CO)C(O)C(O)C2O)c1C (stereo unspecified), the GI50 (HOP-92) was > 100 µM (inactive), the GI50 (NCI-H522) was > 100 µM (inactive) and the GI50 (NCI-H23) was > 100 µM (inactive). The GI50 (SNB-75) was 65.2 µM (inactive), the GI50 (OVCAR-8) was > 100 µM (inactive) and the GI50 (786-0) was > 100 µM (inactive). For the same compound, the GI50 (SF-539) was > 100 µM (inactive), the GI50 (Malme-3M) was > 100 µM (inactive) and the GI50 (HCC 2998) was > 100 µM (inactive). For the same compound, the GI50 (MCF7) was > 100 µM (inactive), the GI50 (SF-295) was > 100 µM (inactive) and the GI50 (M14) was > 100 µM (inactive). For the same compound, the GI50 (HL-60) was > 100 µM (inactive), the GI50 (ACHN) was > 100 µM (inactive) and the GI50 (EKVX) was > 100 µM (inactive). For the same compound, the GI50 (IGROV-1) was > 100 µM (inactive), the GI50 (LOX IMVI) was > 100 µM (inactive) and the GI50 (HCT-15) was greater than 100 µM. For the same compound, the GI50 (UACC-62) was > 100 µM (inactive), the GI50 (MDA-MB-435) was > 100 µM (inactive) and the GI50 (RXF 393) was > 100 µM (inactive). For the same compound, the GI50 (A498) was > 100 µM (inactive), the GI50 (OVCAR-5) was > 100 µM (inactive) and the GI50 (HOP-62) was > 100 µM (inactive). The GI50 (MOLT-4) was > 100 µM (inactive), the GI50 (OVCAR-3) was > 100 µM (inactive) and the GI50 (MDA-N) was > 100 µM (inactive). For the same compound, the GI50 (SK-OV-3) was > 100 µM (inactive), the GI50 (SK-MEL-2) was > 100 µM (inactive) and the GI50 (CCRF-CEM) was > 100 µM (inactive). The GI50 (NCI-H226) was > 100 µM (inactive), the GI50 (COLO 205) was > 100 µM (inactive) and the GI50 (SN12C) was > 100 µM (inactive). The GI50 (PC-3) was > 100 µM (inactive), the GI50 (UO-31) was > 100 µM (inactive) and the GI50 (HCT-116) was > 100 µM (inactive). For the same compound, the GI50 (T47D) was > 100 µM (inactive), the GI50 (UACC-257) was > 100 µM (inactive) and the GI50 (TK-10) was > 100 µM (inactive). The GI50 (K562) was > 100 µM (inactive), the GI50 (KM12) was > 100 µM (inactive) and the GI50 (SNB-19) was > 100 µM (inactive). The GI50 (SK-MEL-28) was > 100 µM (inactive), the GI50 (HT-29) was > 100 µM (inactive) and the GI50 (SR) was > 100 µM (inactive). The GI50 (SK-MEL-5) was > 100 µM (inactive), the GI50 (NCI-H460) was > 100 µM (inactive) and the GI50 (U-251) was > 100 µM (inactive). The GI50 (SF-268) was > 100 µM (inactive), the GI50 (DU-145) was > 100 µM (inactive) and the GI50 (NCI/ADR-RES) was > 100 µM (inactive). For the same compound, the GI50 (OVCAR-4) was > 100 µM (inactive), the GI50 (MDA-MB-231) was > 100 µM (inactive) and the GI50 (SW-620) was > 100 µM (inactive). For the same compound, the GI50 (A549) was > 100 µM (inactive).

With N#CSC/C(Cl)=C/Cl.N#CSC/C(Cl)=C\Cl the GI50 (HOP-92) was > 100 µM (inactive), the GI50 (NCI-H522) was > 100 µM (inactive) and the GI50 (NCI-H23) was > 100 µM (inactive). The GI50 (SNB-75) was > 100 µM (inactive), the GI50 (OVCAR-8) was > 100 µM (inactive) and the GI50 (786-0) was > 100 µM (inactive). For the same compound, the GI50 (SF-539) was > 100 µM (inactive), the GI50 (Malme-3M) was > 100 µM (inactive) and the GI50 (HCC 2998) was 0.069 µM (active). The GI50 (SF-295) was > 100 µM (inactive), the GI50 (M14) was > 100 µM (inactive) and the GI50 (HL-60) was 43.9 µM (inactive). The GI50 (Hs-578T) was > 100 µM (inactive), the GI50 (ACHN) was > 100 µM (inactive) and the GI50 (EKVX) was > 100 µM (inactive). For the same compound, the GI50 (IGROV-1) was > 100 µM (inactive), the GI50 (LOX IMVI) was 20.4 µM (inactive) and the GI50 (HCT-15) was greater than 100 µM. For the same compound, the GI50 (UACC-62) was > 100 µM (inactive), the GI50 (MDA-MB-435) was > 100 µM (inactive) and the GI50 (RXF 393) was > 100 µM (inactive). The GI50 (A498) was > 100 µM (inactive), the GI50 (OVCAR-5) was 63.2 µM (inactive) and the GI50 (HOP-62) was > 100 µM (inactive). For the same compound, the GI50 (MOLT-4) was 29.7 µM (inactive), the GI50 (OVCAR-3) was > 100 µM (inactive) and the GI50 (MDA-N) was > 100 µM (inactive). For the same compound, the GI50 (SK-OV-3) was > 100 µM (inactive), the GI50 (SK-MEL-2) was > 100 µM (inactive) and the GI50 (CCRF-CEM) was 34.8 µM (inactive). For the same compound, the GI50 (NCI-H226) was > 100 µM (inactive), the GI50 (COLO 205) was > 100 µM (inactive) and the GI50 (SN12C) was > 100 µM (inactive). The GI50 (PC-3) was > 100 µM (inactive), the GI50 (UO-31) was > 100 µM (inactive) and the GI50 (HCT-116) was > 100 µM (inactive). For the same compound, the GI50 (T47D) was > 100 µM (inactive), the GI50 (UACC-257) was > 100 µM (inactive) and the GI50 (TK-10) was > 100 µM (inactive). The GI50 (RPMI-8226) was 92.3 µM (inactive), the GI50 (K562) was > 100 µM (inactive) and the GI50 (KM12) was > 100 µM (inactive). For the same compound, the GI50 (SNB-19) was > 100 µM (inactive), the GI50 (SK-MEL-28) was > 100 µM (inactive) and the GI50 (HT-29) was > 100 µM (inactive). The GI50 (SR) was > 100 µM (inactive), the GI50 (SK-MEL-5) was > 100 µM (inactive) and the GI50 (NCI-H460) was > 100 µM (inactive). For the same compound, the GI50 (U-251) was > 100 µM (inactive), the GI50 (SF-268) was > 100 µM (inactive) and the GI50 (DU-145) was > 100 µM (inactive). For the same compound, the GI50 (NCI/ADR-RES) was > 100 µM (inactive), the GI50 (OVCAR-4) was > 100 µM (inactive) and the GI50 (MDA-MB-231) was > 100 µM (inactive). For the same compound, the GI50 (SW-620) was > 100 µM (inactive) and the GI50 (A549) was > 100 µM (inactive).

Source: ChEMBL document CHEMBL1201862, “PubChem BioAssay data set” (2004)
